# Reference: paper PMC10796807 (Computational and Structural Biotechnology Journal, 2023)
# Like-named read-outs stand apart in the source and are kept apart here.
# What was measured:
# [1] = test system: rat TRPV2; conditions: cells pretreated with 2.5 mM PBCD; ref [22]; cited from earlier work
# [2] = test system: human TRPV2; conditions: ref [40]; cited from earlier work
# [3] = test system: mouse or rat TRPV2; conditions: read-out: reported EC50 values; ref [40]; cited from earlier work
# [4] = target: T1, rat TRPV2 (rTRPV2-eGFP) (Rattus norvegicus, UniProt Q9WUD2); assay type: biochemical; conditions: for EC50: no inhibitor
# T1 sequence (Q9WUD2 1-761): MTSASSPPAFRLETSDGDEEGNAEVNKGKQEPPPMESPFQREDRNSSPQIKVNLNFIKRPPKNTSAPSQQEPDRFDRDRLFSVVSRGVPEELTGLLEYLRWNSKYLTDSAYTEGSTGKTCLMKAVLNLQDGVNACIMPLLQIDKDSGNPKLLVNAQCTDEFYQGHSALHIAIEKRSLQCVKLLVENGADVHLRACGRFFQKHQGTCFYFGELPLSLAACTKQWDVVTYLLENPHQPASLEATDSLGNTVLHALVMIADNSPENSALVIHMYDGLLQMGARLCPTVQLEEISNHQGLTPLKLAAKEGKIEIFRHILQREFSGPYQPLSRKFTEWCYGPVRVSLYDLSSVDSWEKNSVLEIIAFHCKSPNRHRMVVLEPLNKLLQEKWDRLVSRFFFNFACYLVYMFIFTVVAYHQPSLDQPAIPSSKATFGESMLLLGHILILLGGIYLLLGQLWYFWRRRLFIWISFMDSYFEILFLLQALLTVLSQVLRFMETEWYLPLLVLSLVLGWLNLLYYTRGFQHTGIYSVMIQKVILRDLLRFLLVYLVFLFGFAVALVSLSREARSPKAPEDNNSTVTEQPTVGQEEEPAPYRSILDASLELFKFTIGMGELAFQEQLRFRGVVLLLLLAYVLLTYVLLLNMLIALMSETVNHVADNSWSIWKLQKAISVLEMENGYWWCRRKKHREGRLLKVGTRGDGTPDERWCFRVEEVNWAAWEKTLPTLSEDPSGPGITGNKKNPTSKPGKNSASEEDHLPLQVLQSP
compound,measurement,setting,value
"C=C(C)[C@@H]1CCC(C)=C[C@H]1c1c(O)cc(CCCCC)cc1O [CBD, cannabidiol]",EC50,[1],3.7 µM
same,activation,[2],no activation of human TRPV2
same,EC50,[3],0.01 to 1 µM
same,EC50,"[4]; EC50 (Bayesian, 90% confidence interval in brackets), TRPV2-GFP vesicles",110 µM
"O=C(O)c1ccc(S(=O)(=O)N2CCCCC2)cc1 [Compound 6, 4-(Piperidine-1-sulfonyl)-benzoic acid]",Confidence that EC50 is lower than that of PBCD (Bayesian hypothesis test),[4],84%
COc1cc(CNC(=O)CCCC/C=C/C(C)C)ccc1O [capsaicin],Activation/modulation of TRPV2 (fluorescence signal),"[4]; negative controls, TRPV2-GFP vesicles",no measurable increase of fluorescence signal
lysophosphatidylcholine [LPC],EC50,"[4]; read-out: EC50 (Bayesian, 90% confidence interval in brackets), TRPV2-GFP vesicles",36 µM
